Source: the METLIN SMRT retention time set (Domingo-Almenara et al. 2019)

test: gradient 5% acetonitrile 3 min, to 50% in 2 min, to 85% in 15 min, held 3 min, 100 µL/min; details: column: Zorbax Extend-C18 2.1 x 50 mm; eluents: water / acetonitrile, 0.1% formic acid
How it was run: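 A Zorbax Extend-C18 column (2.1 × 50 mm, 1.8 μm) run at 100 μL/min with water and acetonitrile, both containing 0.1% formic acid, separated mixtures of ~100 pure standards. The HPLC was coupled to a quadrupole time-of-flight mass spectrometer operated in positive and negative ionization mode, with dead and dwell volumes of 40 μL and 900 μL. Each retention time was taken from a computationally picked adduct peak that was then manually inspected.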

RP-LC retention time	SMILES
1310 s	Cc1cccc(-c2nc(Cn3nnc(C(=O)NCc4ccc(C(C)C)cc4)c3C)c(C)o2)c1
864 s	COc1ccccc1NC(=O)c1c(O)c2cccnc2n(-c2ccc(F)cc2)c1=O
783 s	Cc1cc2nn(CC(=O)Nc3ccc4c(c3)OCCO4)c(=O)n2c(-c2ccc(F)cc2)n1
1020 s	CCN1C(=O)COc2ccc(-c3noc(-c4ccc(OC)c(OC)c4)n3)cc21
1270 s	CCn1nccc1-c1cccc(-c2noc(-c3c(F)cccc3F)n2)c1
856 s	COc1ccc(N2CC(c3noc(-c4ccc(F)cc4)n3)CC2=O)cc1OC (configuration not stated)
769 s	Cc1ccccc1CNC(=O)c1cc2n(n1)CC(C)(C(=O)NCc1ccccc1)N(C)C2=O (configuration not stated)
599 s	Cc1cc(N2CCN(C)CC2)nc2ccc(NC(=S)NCc3ccc(F)cc3)cc12
578 s	COc1ccc(OCc2nc3ccc(C)cc3[nH]2)cc1
683 s	COC(=O)CSc1nnc(CNC(=O)c2ccccc2F)n1Cc1ccccc1
866 s	Cc1ccc(-n2nc(OCC(=O)Nc3cc(F)ccc3F)ccc2=O)cc1C
664 s	O=C(NCC1CC(=O)N(c2ccc3c(c2)OCO3)C1)c1ccccc1F (configuration not stated)
946 s	CCCCn1cc(S(=O)(=O)NCc2ccccc2)c2cccnc21
688 s	CCNC(=O)N1CC(Oc2ccc(-c3nc(C)no3)cc2)C1
1260 s	CCc1ccc(NS(=O)(=O)c2cc(-c3nc(C(C)C)cs3)cs2)cc1
568 s	O=C(Cc1csc(SCc2ccncc2)n1)NCc1ccc2c(c1)OCO2
635 s	CC(C)CCNC(=O)c1ccc2ncnc(N3CCCC3)c2c1
990 s	Cc1cc2nn(CC(=O)N3CCC(C)CC3)c(=O)n2c(Nc2ccc(F)cc2)n1
589 s	C=CCc1c(C)c(C#N)c2nc3ccccc3n2c1NCCOCCO
720 s	O=c1ccc(-c2ccc3c(c2)OCO3)nn1CCc1nc(-c2cccnc2)no1
650 s	CCC(=O)N(C)CCc1noc(-c2ccc(C(=O)NCCCOC)cc2)n1
885 s	CCc1nc(OCC(=O)Nc2ccc(C)cc2Cl)c2ccccc2n1

RP-LC retention time	SMILES
685 s	CNC(=O)C1CCCN(c2nc3ncn(CC(=O)Nc4ccc(Cl)cc4)c(=O)c3s2)C1 (configuration not stated)
936 s	CCC1Oc2ccc(S(=O)(=O)N3CCC(C(=O)Nc4cc(C)ccc4OC)CC3)cc2NC1=O (configuration not stated)
961 s	CCOc1ccc(S(=O)(=O)N2CCc3c(c(-c4nnc(SCC)n4CC)nn3C)C2)cc1
734 s	O=C(Cc1csc(NC(=O)c2cnccn2)n1)Nc1nc2ccccc2s1
950 s	CCOC(=O)c1[nH]c(C)c(C(=O)C(C)N(Cc2ccc(F)cc2)C(=O)C(C)C)c1C (configuration not stated)
623 s	CCC(C)NC(=O)c1cc(C)[nH]n1 (configuration not stated)
638 s	CSc1cccc(NC(=O)N2CCN(C3=CC4=NC(C)CN4C=N3)CC2)c1 (configuration not stated)
1070 s	Cc1sc(-c2noc(C(C)C)n2)cc1S(=O)(=O)N1CCC(C(=O)N(C)Cc2ccco2)CC1
810 s	COc1ccc(C)cc1NC(=O)N1CCC(OC2CCN(S(C)(=O)=O)CC2)CC1
900 s	CCn1cc(S(=O)(=O)Nc2ccc(C)cc2C)c2cccnc21
835 s	O=c1n(CC2CC2)c2cccnc2n1[C@H]1CCCN(S(=O)(=O)c2cccnc2)C1
632 s	COc1ccccc1C(=O)N1C[C@@H]2C[C@H]1C[C@@H]2NS(C)(=O)=O
845 s	O=C(Cn1c(=O)n(-c2ccccc2)c2ncccc21)NC1CCCCCC1
712 s	O=C(CCc1c(-c2ccc(Cl)cc2)nc2ccccn12)NC1CCCCCC1
620 s	O=S(=O)(NCCN1CCN(c2ccc(Cl)cc2)CC1)c1ccc2c(c1)OCCO2
1170 s	CC1=NS(=O)(=O)N(Cc2ccccc2)C=C1C(=O)OCc1noc(-c2ccccc2C)n1
803 s	CC(C)C(=O)NCCc1csc(C2CCCN(C(=O)c3cc4ccccc4[nH]3)C2)n1 (configuration not stated)
839 s	CC(=O)c1ccc(NC(=O)C2CCCN(c3nc(C)nc4oc(C)c(C)c34)C2)cc1 (configuration not stated)
909 s	CC(C)Cn1cc(CCNC(=O)c2ccc(F)c(Cl)c2)c2cccnc21
1060 s	CCC(=O)O[C@]1(C(=O)CO)CC[C@H]2[C@@H]3CCC4=CC(=O)CC[C@]4(C)[C@H]3CC[C@@]21C
990 s	Cc1ccc(N2CCN(S(=O)(=O)N(C)C)CC2)cc1Cl
760 s	COc1cc(=O)n2c(c1C(=O)Nc1ccc(Br)cc1)CCCC2

RP-LC retention time	SMILES
859 s	COc1ccc(-c2nnc(N3CCC(C(=O)N4CCN(c5ccccc5)CC4)CC3)o2)cc1
927 s	CCc1ccc(NC(=O)C2CCN(S(=O)(=O)c3ccc4c(c3)NC(=O)C(C)O4)CC2)cc1 (configuration not stated)
820 s	CCOc1cccc(CN2C(=O)C3(CCOCC3)CC2c2nnnn2C(C)(C)C)c1 (configuration not stated)
940 s	COc1ccc(-c2csc(NC(=O)CCn3c(=O)oc4ccccc43)n2)cc1
1050 s	O=C(NCc1noc(-c2cccc(Cl)c2)n1)c1coc(-c2ccccc2)n1
1190 s	CCCCN1C(=O)C(C)(C(=O)N2CCN(c3ccccc3F)CC2)Oc2cccnc21 (configuration not stated)
585 s	Cc1ccccc1CNC(=O)CCC1CCN(c2cc(NC3CC3)ncn2)CC1
666 s	O=C(Cc1cccs1)NCCn1ncc2c(=O)n(Cc3ccccc3F)cnc21
1210 s	Cn1cc(-c2nc(C(=O)Nc3ccc(F)cc3Cl)cs2)c2cccnc21
722 s	O=C(Nc1ccccn1)c1ccc(S(=O)(=O)NC2CCCC2)cc1
854 s	COc1cccc(S(=O)(=O)N2C[C@@H]3C[C@H](NC(=O)c4cccs4)[C@H]2C3)c1
944 s	COc1cccc(CNC(=O)Cn2c(=O)cc(-c3nc(C(C)C)no3)c3ccccc32)c1
893 s	CCOC(=O)c1ccc(N2C=C(C(=O)OC)S(=O)(=O)c3ccccc32)cc1
995 s	O=C(Nc1nc(-c2ccccc2)cs1)c1ccc(F)cc1
779 s	Cc1noc2ncn(CC(=O)NCc3cccc(Br)c3)c(=O)c12
600 s	O=C(Cc1c[nH]c2ccccc12)NC1CCN(c2ccc(=O)[nH]n2)C1 (configuration not stated)
915 s	O=C(CN1C(=O)CCCc2cc(S(=O)(=O)N3CCCCCC3)ccc21)N1CCCCCC1
1050 s	COc1ccc(-c2nc(C3CC(=O)N(c4ccc(F)c(Cl)c4)C3)no2)cc1 (configuration not stated)
841 s	CC(C(=O)NCc1ccco1)C1CCN(C(=O)c2cc3cc(Cl)ccc3[nH]2)CC1 (configuration not stated)
873 s	Cc1ccc(NC(=O)N2C[C@@H](F)C[C@H]2C(=O)N2CCc3ccccc3C2)cc1F
852 s	Cc1cc(C)cc(NC(=O)C2CCCN2S(=O)(=O)c2cc3c(cc2C)NC(=O)C(C)O3)c1 (configuration not stated)
655 s	Cc1cc(C(=O)NC2CCCC2)nc2cc(-c3cccs3)nn12

RP-LC retention time	SMILES
851 s	CC1CCC(NC(=O)CCn2nc(C(=O)N3c4ccccc4CC3C)ccc2=O)CC1 (configuration not stated)
711 s	Cc1noc(C)c1CNC(=O)COc1ccc(F)cc1
800 s	O=C(c1cccc(F)c1)N1CCC2(CC1)N=C(c1ccc(Cl)cc1)NO2
798 s	CCc1ccc(S(=O)(=O)N2CCC3(CC2)NCCN=C3NCc2cc(F)cc(F)c2)cc1
1270 s	COc1cccc(Nc2nc(-c3ccc(I)cc3)cs2)c1
826 s	O=C1CCCc2cc(S(=O)(=O)N3CCC(C(=O)Nc4cccc(Cl)c4)CC3)ccc2N1
788 s	O=C(NC1CCCC1)c1nnn(-c2ccc(F)cc2)c1-c1ccncc1
1250 s	COc1nc2ccccc2nc1N1CCCC(C(=O)Nc2ccc(Br)cc2)C1 (configuration not stated)
1260 s	CC(C)c1ccc(N2C(=O)C3N=NN(Cc4nc(-c5cccc(C(F)(F)F)c5)no4)C3C2=O)cc1 (configuration not stated)
765 s	CCOC(=O)c1c(C)[nH]c(C(=O)N2CCC(CC(=O)N(C)Cc3ccco3)CC2)c1C
962 s	Cc1cccc(OCc2nc(C)c(C(=O)N3CCC(C(N)=O)CC3)s2)c1
634 s	CCN1CCC2(CC1)OC(=O)C(C)=C2C(=O)N1CCN(c2cccc(OC)c2)CC1
769 s	Cc1cc2nn(CC(=O)Nc3ccccc3)c(=O)n2c(-c2ccccc2)n1
700 s	Cc1csc(NC(=O)c2cc(Sc3nncn3C)ccc2N)n1
714 s	CCc1nnc2ccc(S(=O)(=O)Nc3cccc(F)c3)cn12
813 s	Cc1ccc(NC(=O)N2CCC(CC(=O)N3CCCCC3)CC2)cc1F
918 s	COc1ccc(OC)c(NC(=O)N(C)CCc2noc(-c3ccccc3)n2)c1
948 s	CCOC(=O)c1noc2nc(C)nc(NCCCN3CCN(c4cc(Cl)ccc4C)CC3)c12
795 s	COc1ccc(-c2cn3c(CC(=O)Nc4ccc(F)cc4Cl)csc3n2)cc1
828 s	Cc1nn(Cc2nc(-c3ccc(NC(=O)c4ccco4)cc3)oc2C)c(C)c1C

SMILES	RP-LC retention time
CC1(C)Cc2cccc(OCC(=O)N3CCN(Cc4nnnn4-c4ccccc4)CC3)c2O1	811 s
